# Results from patent publication US20100292085A1, “Methods and compositions for characterization of HSD1 inhibitors” (priority 2005, published 2010).
# Assays:
# [1] = target: T1, HSD1 (Homo sapiens, UniProt P28845); assay: HSD1 signature reversal activity: microarray of cortisone signature genes in HepG2/HSD1 cells; assay type: cell-based; set-up: expressed in transfected cells; conditions: slope of linear regression vs cortisone treatment alone (1.0 = no inhibition), Table 2 genes, 500 nM cortisone, 10 μM forskolin, inhibitor added as 2× concentration (14 μM), 20 hrs
# T1 sequence (P28845 whole entry): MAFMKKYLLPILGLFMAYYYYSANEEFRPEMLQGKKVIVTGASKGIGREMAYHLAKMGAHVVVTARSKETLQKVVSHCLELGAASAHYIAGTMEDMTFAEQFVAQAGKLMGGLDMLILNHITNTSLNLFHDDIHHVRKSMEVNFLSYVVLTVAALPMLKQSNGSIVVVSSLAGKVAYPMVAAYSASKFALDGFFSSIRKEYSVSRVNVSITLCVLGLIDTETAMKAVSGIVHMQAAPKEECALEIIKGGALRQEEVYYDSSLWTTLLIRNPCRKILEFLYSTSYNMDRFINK
# Method: HepG2 human hepatoma cells stably transfected with human 11βHSD1 (HepG2/HSD1 cells) were plated at 2×10^6 cells per well on 6-well plates in 1 ml Culture Medium (DMEM with 2 mM L-Glutamine, 10% charcoal-dextran-treated FBS, 100 U/ml Penicillin, 100 μg/ml streptomycin, 10 μM sodium pyruvate, 100 μM non-essential amino acids, 0.003 N NaOH) at 37° C./5% CO2. After 24 hours, the Culture Medium was replaced with 500 μl Culture Medium containing 1000 nM cortisone (500 nM final concentration) and 20 μM forskolin (10 μM final concentration). The cells were incubated for 20 hrs at 37° C./5% CO2. Samples were run in triplicates. […]
# (§1) After hybridization, arrays were scanned and fluorescence intensities for each probe were recorded. […] For each gene sequence present on the microarrays, statistical significance of differential gene expression was determined by calculating P values according to the following equation: […]
# Gene expression changes in the cortisone signature genes were analyzed to further assess the degree to which HSD1-agents cause a reversal in the magnitude of the cortisone signature due to the degree of inhibition of HSD1 activity. Gene expression levels of the cortisone signature genes were measured in cortisone treated HepG2/HSD1 cells and HepG2/HSD1 cells treated with an HSD1-agent affecting HSD1 activity. […]
# [2] = target: T1, HSD1; assay: In vivo efficacy of HSD1 inhibitor; set-up: host or cells: in vivo
# [3] = target: T1, HSD1; assay: Direct measurement of HSD1 activity: 3H-cortisone conversion to cortisol by HPLC; assay type: cell-based; set-up: expressed in transfected cells
# Method: Oxidoreductase Method: [1,2-^3H]-cortisone (48.7 Ci/mmol) was added to a final concentration of 20 nM to HepG2/HSD1 (2×10^6 cells/well in 6-well plates) and incubated for 1.5, 3, 6 and 22 hrs at 37° C. in culture medium (Dulbecco's Modified Eagle Medium with high glucose containing 2 mM L-glutamine, 10% fetal bovine serum, 100 U/ml penicillin, 100 μg/ml Streptomycin, 10 μM sodium pyruvate, 100 μM non-essential amino acids, 0.003 N NaOH and 0.8 mg/ml Geneticin). The samples (100 μl aliquots) were then extracted with 300 μl ethyl acetate and the upper, organic phases were dried. The dried organic extracts were then resuspended either in 100 μl DMSO for analysis by reverse-phase HPLC (buffer A=10% methanol/90% water; buffer B=90% methanol/10% water using a gradient from 20-45% Buffer B; YMC Combiscreen Pro C18 50 mm×4.6 mm column; flow rate 2.5 mL/min).
# HSD1 activity was measured by spiking the incubation medium with ^3H-cortisone. After 21 hrs post compound treatment, conversion of the cortisone to cortisol was assessed by HPLC analysis.
# [4] = test system: HepG2/HSD1 cells; assay: Identification of the off-target response signature by microarray (Table 6); assay type: cell-based, human
# Text: This off-target gene signature was not detected in other active HSD1 inhibitor compounds with in vivo efficacy. Monitoring for the off-target signature identified by 3-(2-chlorophenyl)-4-methyl-5-(4-pentylbicyclo[2.2.2]oct-1-yl)-4H-1,2,4-triazole in the HepG2 cells over-expressing HSD1 can improve characterization and selection of candidate HSD1 compounds prior to in vivo efficacy testing.
# Total RNA isolated from cultured cell samples was used to make fluorescently labeled cRNA that was hybridized to DNA oligonucleotide microarrays as described previously (Hughes et al., supra., Marton et al., 1998, Nat. Med. 4:1293-301). Briefly, 4 μg of total RNA from each cell culture sample was used to synthesize dsDNA through RT. cRNA was produced by in vitro transcription and labeled postsynthetically with Cy3 or Cy5. Two populations oflabeled cRNA, a control population from vehicle/forskolin treated cells and an experimental population, i.e., cortisone/forskolin plus vehicle or plus HSD1 test compound, were compared with each other by competitive hybridization to microarrays. Two hybridizations were done with each cRNA sample pair using a fluorescent dye reversal strategy. […]
# [5] = test system: SCD; assay: Off-target activity by SCD expression level (microarray); assay type: cell-based, human; conditions: HepG2/HSD1 cells, 10 μM forskolin, no cortisone, vs forskolin alone; microarray probe
# Method: (§2) Total RNA isolated from cultured cell samples was used to make fluorescently labeled cRNA that was hybridized to DNA oligonucleotide microarrays as described previously (Hughes et al., supra., Marton et al., 1998, Nat. Med. 4:1293-301). Briefly, 4 μg of total RNA from each cell culture sample was used to synthesize dsDNA through RT. cRNA was produced by in vitro transcription and labeled postsynthetically with Cy3 or Cy5. Two populations oflabeled cRNA, a control population from vehicle/forskolin treated cells and an experimental population, i.e., cortisone/forskolin plus vehicle or plus HSD1 test compound, were compared with each other by competitive hybridization to microarrays. Two hybridizations were done with each cRNA sample pair using a fluorescent dye reversal strategy.
# Each HSD1 inhibitor compound treated sample was compared to a forskolin alone cell sample. The HepG2/HSD1 cells used in these experiments were not contacted with cortisone.
# [6] = test system: HepG2/HSD1 cells; assay: Off-target effects by microarray: number of genes changed, no cortisone; assay type: cell-based, human; conditions: number of genes changed vs forskolin alone
# Method: as §2
# The human microarrays used in this study contained 23,653 oligonucleotide probes corresponding to individual genes or expressed sequence tags. […]
# as §1
# HSD1 compounds were evaluated using microarray gene expression measurements obtained from HepG2/HSD1 cells under conditions where the cells were not treated with cortisone. […]
# [7] = test system: off-target signature genes (SCD, DHCR7, ACLY, FBXO9, HEY1); assay: Off-target signature genes measured by RT-PCR (TAQman) in HepG2/HSD1 cells; assay type: cell-based, human
# Method: HepG2 cells stably transfected with human HSD1, as previously described in Example 1, were plated in either 96 well or 24 well tissue culture plates. Cells were plated at a density of 6.25×10^5 cells/well on 24 well plates in 500 μl DMEM culture medium prepared as previously described. For the 96 well plates, the cells were plated at a density of 1×10^5 cells per well in 100 μl culture medium. The cells were incubated at 37° C. in a 5% CO2 atmosphere. After 24 hours, the culture medium was removed and the cells were pre-incubated with, either 250 μl (24 well plate) or 50 μl (96 well plate), Culture Medium containing 2× concentration of HSD1 inhibitor (14 μM) or vehicle for 20 min at 37° C. in a 5% CO2 atmosphere. Culture Medium (either 250 μl or 50 μl) containing 1000 nM cortisone (500 nM final concentration) or vehicle, and 20 μM forskolin (10 μM final concentration), was next added to the cells. The cells were further incubated for 20 hrs at 37° C. in a 5% CO2 atmosphere. […]
# Oligonucleotide probes were labeled with the 6-FAM fluorophore at the 5′ end (FAM) and a non-fluorescent quencher at the 3′ end (NFQ). […] The levels of mRNA were normalized to the amount of 18S RNA detected in each sample using the Eukaryotic 18S rRNA Endogenous Control from Applied Biosystems. Levels of the target mRNAs in treated cells were calculated relative to the untreated cells.
# [8] = target: T1, HSD1; assay: Cortisone signature genes measured by RT-PCR (TAQman) in HepG2/HSD1 cells; assay type: cell-based; set-up: expressed in transfected cells
# Method: HepG2 cells stably transfected with human HSD1, as previously described in Example 1, were plated in either 96 well or 24 well tissue culture plates. Cells were plated at a density of 6.25×10^5 cells/well on 24 well plates in 500 μl DMEM culture medium prepared as previously described. For the 96 well plates, the cells were plated at a density of 1×10^5 cells per well in 100 μl culture medium. The cells were incubated at 37° C. in a 5% CO2 atmosphere. After 24 hours, the culture medium was removed and the cells were pre-incubated with, either 250 μl (24 well plate) or 50 μl (96 well plate), Culture Medium containing 2× concentration of HSD1 inhibitor (14 μM) or vehicle for 20 min at 37° C. in a 5% CO2 atmosphere. Culture Medium (either 250 μl or 50 μl) containing 1000 nM cortisone (500 nM final concentration) or vehicle, and 20 μM forskolin (10 μM final concentration), was next added to the cells. The cells were further incubated for 20 hrs at 37° C. in a 5% CO2 atmosphere. All conditions were run in duplicates.
# HepG2/HSD1 cells were lysed using Trizol reagent (Life Technologies, Grand Island, N.Y.). Total RNA was isolated from HepG2/HSD1 lysate using the RNeasy 96-Kit (Qiagen Inc., Valencia, Calif.) following the manufacturer's instructions, including the optional on-column removal of contaminating DNA step by RNase-free DNase I treatment. The RNA was reverse-transcribed to single stranded cDNA using random hexamer primers with TAQman reverse transcription reagents (Applied Biosystems, Foster City, Calif.).
# The sequences of the TAQman primers and probes used to detect the target cDNAs were synthesized by Qiagen Operon (Alameda, Calif.) and are shown in Tables 8 and 9.
# Oligonucleotide probes were labeled with the 6-FAM fluorophore at the 5′ end (FAM) and a non-fluorescent quencher at the 3′ end (NFQ). Real-time PCR was performed on human HepG2/HSD1 cDNA using the TaqMan Universal PCR Master Mix (Applied Biosystems, Foster City, Calif.) and appropriate primer/probe sets on an ABI Prism 7900HT Sequence Detection System (Applied Biosystems, Foster City, Calif.) in the 384-well format according to manufacturer's instructions. The levels of mRNA were normalized to the amount of 18S RNA detected in each sample using the Eukaryotic 18S rRNA Endogenous Control from Applied Biosystems. Levels of the target mRNAs in treated cells were calculated relative to the untreated cells.
# [9] = RT-PCR, 500 nM cortisone + 10 μM forskolin, 20 hrs, inhibitor added as 2× concentration (14 μM)
smiles,measurement,setting,value
"CCCCCC12CCC(c3nnc(-c4ccccc4Cl)n3C)(CC1)CC2 [3-(2-chlorophenyl)-4-methyl-5-(4-pentylbicyclo[2.2.2]oct-1-yl)-4H-1,2,4-triazole]",HSD1 Signature Reversal Activity Values,[1],0.03
same,efficacy in vivo (in words),[2],failed to achieve significant efficacy in vivo
same,Percent Conversion to Cortisol,"[3]; 3H-cortisone spiked medium, 21 hrs post compound treatment, cortisone/forskolin, HPLC",2%
same,Percent Conversion to Cortisol normalized to cortisone/forskolin value,"[3]; value in square brackets, cortisone/forskolin alone = 1.0",0.05
same,off-target signature (Table 6) in HepG2 cell line over-expressing HSD1 (in words),[4]; independent of cortisone treatment,exhibited off-target activity
same,"off-target response signature, number of gene markers","[4]; p-value<0.01, no fold change cut-off, common to three replicate studies, compound + forskolin",330
same,Log ratio of SCD gene expression,[5],0.45
same,"off-target activity (in words, from Table 5 microarray data)",[6],high levels of off-target activity
same,"Average of five genes (off-target signature, Fold Change Relative to Vehicle Alone)",[7],1.7 Fold Change
same,G6PC Gene Transcript (Fold Change Relative to Vehicle Alone),[8]; [9],1.0 Fold Change
same,Homer-2 Gene Transcript (Fold Change Relative to Vehicle Alone),[8]; [9],1.5 Fold Change
same,LIPG Gene Transcript (Fold Change Relative to Vehicle Alone),[8]; [9],2.7 Fold Change
same,PGC Gene Transcript (Fold Change Relative to Vehicle Alone),[8]; [9],0.7 Fold Change
same,TAT Gene Transcript (Fold Change Relative to Vehicle Alone),[8]; [9],1.2 Fold Change
same,"Average of five genes (cortisone signature, Fold Change Relative to Vehicle Alone)","[8]; average of Homer-2, G6PC, PGC, TAT, LIPG",1.4 Fold Change
